Ten compounds from patent US20100056516A1 (priority 2006, published 2010) can be followed below.

Like-named read-outs stand apart in the source and are kept apart here.

Data set [1] concerns the target HIV integrase (Human immunodeficiency virus type 1 group M subtype B, UniProt P04585). In words: integrase strand transfer assay (STA). It is filed as biochemical.
Data set [2] concerns the target HIV-1 reverse transcriptase (RNase H) (Human immunodeficiency virus type 1 group M subtype B, UniProt P04585). In words: ASH assay: RNase H mediated RNA cleavage (ECL format, BioVeris M384). Format: biochemical. The protocol:
Potency of a substance as an RNase H inhibitors can be determined by measuring its ability prevent RNase H catalyzed cleavage of the RNA strand in a RNA/DNA hybrid duplex substrate. RNase H activity is measured using a substrate generated by annealing the oligoribo-nucleotide 5′-rCrCrUrCrUrCrArArArArArCrArGrGrArGrCrArGrArArArGrArCrArArG (SEQ ID NO:1) to the oligodeoxyribonucleotide 5′-Biotin-[…] (SEQ ID NO:2). […] (SEQ ID NO:3). The resulting double-stranded duplex DNA product is quantitated in an ALPHA screen format using [streptavidin- and anti-fluorescein-coated beads (Packard Bioscience) following the manufacturer's guidelines and reading on a Fusion AlphaScreen instrument. Alternatively, the released 5′-Biotinylated DNA is annealed to a complementary oligodeoxyribonucleotide: 5′-ruthenium-[…] (SEQ ID NO:3). The resulting double-stranded duplex DNA product is quantitated in an ECL screen format using Dynabeads M280 coated with streptavidin (BioVeris Corporation) following the manufacturer's guidelines and reading on a BioVeris M384 Analyzer.

Data set [3] deals with HeLa P4-2 cell line. The note with it: human. The text has this:
The HeLa P4-2 cell line used in the single cycle HIV infectivity Assay B of Example 270 was also used to determine compound cytotoxicity in the absence of viral infection.

Data set [4] has as its system HXB2 virus. In words: microbe, parasite or virus in culture. It is filed as cell-based, HIV. In a few lines:
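HXB2 virus used to infect HeLa P4-2 cells in a single-cycle format; inhibition of acute infection is measured.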

The mark [5] stands for this setting: integrase strand transfer, read-out: IC50 in the STA assay.
The mark [6] stands for this setting: integrase strand-transfer assay, Example 269, read-out: STA (IC50).
Setting [7] is: RNase H mediated RNA cleavage assay, Example 269, read-out: ASH (IC50).
[8] abbreviates: Human immunodeficiency virus 1, HXB2, HeLaP4-2, read-out: SCIA-B (IC50, μM).
Where [9] appears, read: Human immunodeficiency virus 1, HXB2, HeLaP4-2, read-out: antiviral IC50 (SCIA-B).
The mark [10] stands for this setting: IC50 in the STA assay, integrase strand transfer.
[11] abbreviates: STA (IC50, μM), integrase strand-transfer assay, Example 269.

In general, IC50 refers to the concentration that gives 50% inhibition. As for `CCOC(=O)c1c(O)c2cc(-c3cccc(O)c3)cnc2n(O)c1=O` [Example 59, Ethyl 1,4-dihydroxy-6-(3-hydroxyphenyl)-2-oxo-1,2-dihydro-1,8-naphthyridine-3-carboxylate], the IC50 in data set [1] (setting [5]) is below 50 µM; in data set [1] (setting [6]), 0.022 µM; in data set [2] (setting [7]), 150 nM; in data set [4] (setting [8]), 0.05 µM; in data set [4] (setting [9]), below 100 µM. For the same compound, the “Cytotoxicity (LD50, μM)” value in data set [3] worked out at 20 µM.
As for `O=c1cc(N2CCc3ccc(-c4cccnc4)cc3C2)c2cccnc2n1O` [Example 255, 1-hydroxy-4-(7-pyridin-3-yl-3,4-dihydroisoquino1in-2(1H)-yl)-1,8-naphthyridin-2(1H)-one], the IC50 is below 50 µM in data set [1] (setting [10]); 1.8 µM in data set [1] (setting [11]); 120 nM in data set [2]; 0.17 µM in data set [4] (setting [8]); below 100 µM in data set [4] (setting [9]). Also, in data set [3], the “Cytotoxicity (LD50, μM)” value came out at 5.1 µM.
As to `O=c1cc(NCc2ccc(CN3CCOCC3)cc2)c2cccnc2n1O` [Example 111, 1-Hydroxy-4-{[4-(morpholin-4-ylmethyl)benzyl]amino}-1,8-naphthyridin-2(1H)-one], the IC50 in data set [1] (setting [10]) was below 50 µM; in data set [1] (setting [11]), 1.8 µM; in data set [2], 46 nM; in data set [4] (setting [8]) it was 0.12 µM; in data set [4] (setting [9]), below 100 µM. Besides, the “Cytotoxicity (LD50, μM)” value in data set [3] was above 100 µM.
As for `COc1ccccc1CNc1cc(=O)n(O)c2ncccc12` [Example 142, 1-hydroxy-4-[(2-methoxybenzyl)amino]-1,8-naphthyridin-2(1H-one)], the IC50 in data set [1] (setting [10]) is below 50 µM; in data set [1] (setting [11]), 0.56 µM; in data set [2] it was 84 nM; in data set [4] (setting [8]), 0.09 µM; in data set [4] (setting [9]), below 100 µM. For the same compound, the “Cytotoxicity (LD50, μM)” value in data set [3] came to 4.4 µM.
On to `CCOC(=O)c1c(O)c2c(-c3ccccc3)ccnc2n(O)c1=O` [Example 4, Ethyl 1,4-dihydroxy-2-oxo-5-phenyl-1,2-dihydro-1,8-naphthylidine-3-carboxylate], for which the IC50 in data set [1] (setting [10]) was below 50 µM; in data set [1] (setting [11]), 0.24 µM; in data set [2] it was 260 nM; in data set [4] (setting [8]) it was 0.53 µM; in data set [4] (setting [9]) it was below 100 µM. For the same compound, the “Cytotoxicity (LD50, μM)” value in data set [3] was found to be 50 µM.
With `CCOC(=O)c1c(O)c2cc(-c3cccc(CN4CCOCC4)c3)cnc2n(O)c1=O` [Example 57, Ethyl 1,4-dihydroxy-6-[3-(morpholin-4-ylmethyl)phenyl]-2-oxo-1,2-dihydro-1,8-naphthyridine-3-carboxylate], the IC50 in data set [1] (setting [5]) is below 50 µM; in data set [1] (setting [6]), 0.069 µM; in data set [2] (setting [7]), 520 nM; in data set [4] (setting [8]) it was 0.1 µM; in data set [4] (setting [9]), below 100 µM. For the same compound, in data set [3], the “Cytotoxicity (LD50, μM)” value was found to be 36 µM.
On to `COc1cccc(-c2c(O)c3cccnc3n(O)c2=O)c1` [Example 40, 1,4-Dihydroxy-3-(3-methoxyphenyl)-1,8-naphthyridin-2(1H)-one], for which the 50% inhibitory concentration (IC50) in data set [1] (setting [5]) is below 50 µM; in data set [1] (setting [6]), 0.62 µM; in data set [2] (setting [7]), 110 nM; in data set [4] (setting [8]), 0.67 µM; in data set [4] (setting [9]) it was below 100 µM. The “Cytotoxicity (LD50, μM)” value in data set [3] was above 100 µM.
With `CCOC(=O)c1c(O)c2cc(C(=O)N(C)CCc3ccccc3)cnc2n(O)c1=O` [Example 81, Ethyl 1,4-dihydroxy-6-{[methyl(2-phenylethyl)amino]carbonyl}-2-oxo-1,2-dihydro-1,8-naphthyridine-3-carboxylate], the IC50 in data set [1] (setting [5]) was below 50 µM; in data set [1] (setting [6]) it was 0.027 µM; in data set [2] (setting [7]) it was 270 nM; in data set [4] (setting [8]), 0.06 µM; in data set [4] (setting [9]) it was below 100 µM. The “Cytotoxicity (LD50, μM)” value in data set [3] is above 100 µM.
As to `O=c1cc(NC2CCc3ccccc32)c2cccnc2n1O` (stereo not drawn) [Example 134, 4-(2,3-dihydro-1H-inden-1-ylamino)-1-hydroxy-1,8-naphthyridin-2(1H)-one], the IC50 in data set [1] (setting [10]) was below 50 µM; in data set [1] (setting [11]) it was 0.36 µM; in data set [2], 91 nM; in data set [4] (setting [8]) it was 0.034 µM; in data set [4] (setting [9]), below 100 µM. The “Cytotoxicity (LD50, μM)” value in data set [3] was 23 µM.
As to `NCc1ccc(-c2ccc(-c3c(-c4ccccc4)c(=O)n(O)c4ncc(F)cc34)cc2)cc1` [Example 242, 4-[4′-(aminomethyl)biphenyl-4-yl]-6-fluoro-1-hydroxy-3-phenyl-1,8-naphthyridin-2-(1H)-one], the half-inhibitory concentration (IC50) was below 50 µM in data set [1] (setting [10]); 7.4 µM in data set [1] (setting [11]); 180 nM in data set [2]; 0.25 µM in data set [4] (setting [8]); below 100 µM in data set [4] (setting [9]). Also, in data set [3], the “Cytotoxicity (LD50, μM)” value is 310 µM.
